Measured values: ChEMBL document CHEMBL1151656, “Cucurbitacin B and isocucurbitacin B: cytotoxic components of Helicteres isora” (1985)

Assay: Cytotoxicity against human 9KB cells
Type: functional

Row | Compound | ED50 [×10⁻⁵ ug/ml]
1 | CC(=O)OC(C)(C)/C=C/C(=O)[C@@](C)(O)[C@H]1[C@H](O)C[C@@]2(C)[C@@H]3CC=C4[C@@H](CC(=O)[C@@H](O)C4(C)C)[C@]3(C)C(=O)C[C@]12C [ISOCUCURBITACIN B] | 7.6
2 | CC(=O)OC(C)(C)/C=C/C(=O)[C@](C)(O)[C@H]1[C@H](O)C[C@@]2(C)[C@@H]3CC=C4[C@H](C[C@H](O)C(=O)C4(C)C)[C@]3(C)C(=O)C[C@]12C [CUCURBITACIN B] | <1
